Results reported in article PMC12667308 (Drug Delivery, 2025).

Legend:
(α3β2)2α3 nAChR = biological target: T1, (α3β2)2α3 nAChR (Homo sapiens, UniProt P17787+P32297); conditions: read-out: ACh effective concentration 90 (EC90); calculated from earlier concentration-response data; ref O’Brien [2024]; O’Brien et al. [2023]; cited from earlier work
T1 construct: expressed in transfected cells; host or cells: Xenopus laevis oocytes, mixed cRNAs 30 ng α : 1 ng β
From the text: (§1) It is well appreciated that varying cRNA subunit injection ratios can result in the expression of a mixture of nAChR isoforms.

(α3β2)2β2 nAChR = biological target: T2, (α3β2)2β2 nAChR (Homo sapiens, UniProt P17787+P32297); conditions: read-out: ACh effective concentration 90 (EC90); calculated from earlier concentration-response data; ref O’Brien [2024]; O’Brien et al. [2023]; cited from earlier work
T2 construct: expressed in transfected cells; host or cells: Xenopus laevis oocytes, mixed cRNAs 1 ng α : 30 ng β
From the text: as §1

α6/α3β2β3 nAChR = biological target: T3, α6/α3β2β3 nAChR (Homo sapiens, UniProt P17787+P32297+Q15825); conditions: read-out: ACh effective concentration 90 (EC90); calculated from earlier concentration-response data; ref O’Brien [2024]; O’Brien et al. [2023]; cited from earlier work
T3 construct: comprised of the α6 extracellular domain and the α3 transmembrane and intracellular domain; expressed in transfected cells; host or cells: Xenopus laevis oocytes, mixed cRNAs 12 ng α6/α3 : 12 ng β2 : 6 ng β3
From the text: as §1

(α4β2)2β2 nAChR = biological target: T4, (α4β2)2β2 nAChR (Homo sapiens, UniProt P17787+P43681); conditions: read-out: ACh effective concentration 90 (EC90); calculated from earlier concentration-response data; ref O’Brien [2024]; O’Brien et al. [2023]; cited from earlier work
T4 construct: expressed in transfected cells; host or cells: Xenopus laevis oocytes, mixed-subunit cRNA injection
From the text: as §1

α4β2α5 nAChR = biological target: T5, α4β2α5 nAChR (Homo sapiens, UniProt P17787+P43681); conditions: read-out: ACh effective concentration 90 (EC90); calculated from earlier concentration-response data; ref O’Brien [2024]; O’Brien et al. [2023]; cited from earlier work
T5 construct: expressed in transfected cells; host or cells: Xenopus laevis oocytes, mixed cRNAs 2.5 ng α4 : 2.5 ng β2 : 25 ng α5
From the text: as §1

(α4β2)2α4 nAChR = biological target: T6, (α4β2)2α4 nAChR (Homo sapiens, UniProt P17787+P43681); conditions: read-out: ACh effective concentration 90 (EC90); calculated from earlier concentration-response data; ref O’Brien [2024]; O’Brien et al. [2023]; cited from earlier work
T6 construct: expressed in transfected cells; host or cells: Xenopus laevis oocytes, mixed cRNAs 12.5 ng α4 : 0.125 ng β2
From the text: as §1

[1] = system: concatenated β3α6β2α4β2 nAChR; conditions: read-out: ACh effective concentration 90 (EC90); calculated from earlier concentration-response data; ref O’Brien [2024]; O’Brien et al. [2023]; cited from earlier work
From the text: as §1

α7 nAChR [2] = biological target: T7, α7 nAChR (Homo sapiens, UniProt P36544); assay type: cell-based
T7 construct: expressed in transfected cells; host or cells: Xenopus laevis oocytes, cRNA injection (40 ng/oocyte, from pSHE vector)

[3] = biological target: T8, human α7 nAChR expressed in Xenopus laevis oocytes (Homo sapiens, UniProt P36544); assay type: cell-based
T8 construct: expressed in transfected cells; host or cells: Xenopus laevis oocytes, cRNA injection (40 ng/oocyte, from pSHE vector)

[4] = biological target: T9, α7 nAChR-expressing oocytes (Homo sapiens, UniProt P36544); assay type: cell-based
T9 construct: expressed in transfected cells; host or cells: Xenopus laevis oocytes, cRNA injection (40 ng/oocyte, from pSHE vector)

uninjected oocytes = assay type: cell-based, Xenopus laevis; conditions: N = 3, n = 3 at 100 µM
α7 nAChR [5] = biological target: T7, α7 nAChR; assay type: cell-based; conditions: N = 3, n = 6
[6] = system: concatenated β3α6β2α4β2 nAChR; assay type: cell-based, human
α7 nAChR [7] = biological target: T7, α7 nAChR; assay type: cell-based; remark: listed apart in the source

T7 sequence (P36544 23-502): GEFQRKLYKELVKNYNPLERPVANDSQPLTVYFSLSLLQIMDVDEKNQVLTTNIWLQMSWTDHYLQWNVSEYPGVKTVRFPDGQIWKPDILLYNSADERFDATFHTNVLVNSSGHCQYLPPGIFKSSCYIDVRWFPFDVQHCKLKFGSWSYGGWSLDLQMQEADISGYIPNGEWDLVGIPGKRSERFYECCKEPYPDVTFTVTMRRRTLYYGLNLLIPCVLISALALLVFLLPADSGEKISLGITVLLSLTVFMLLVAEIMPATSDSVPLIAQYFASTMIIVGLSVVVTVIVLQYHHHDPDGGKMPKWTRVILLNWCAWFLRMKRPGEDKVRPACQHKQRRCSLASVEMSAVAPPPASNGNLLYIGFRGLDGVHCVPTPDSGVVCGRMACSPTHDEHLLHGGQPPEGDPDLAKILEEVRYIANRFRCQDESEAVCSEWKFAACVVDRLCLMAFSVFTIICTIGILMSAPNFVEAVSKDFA
T9 sequence (P36544 23-502): as above
T8 sequence (P36544 23-502 limits assumed): as the sequence (P36544 23-502) above
T1 sequence (P32297 32-505): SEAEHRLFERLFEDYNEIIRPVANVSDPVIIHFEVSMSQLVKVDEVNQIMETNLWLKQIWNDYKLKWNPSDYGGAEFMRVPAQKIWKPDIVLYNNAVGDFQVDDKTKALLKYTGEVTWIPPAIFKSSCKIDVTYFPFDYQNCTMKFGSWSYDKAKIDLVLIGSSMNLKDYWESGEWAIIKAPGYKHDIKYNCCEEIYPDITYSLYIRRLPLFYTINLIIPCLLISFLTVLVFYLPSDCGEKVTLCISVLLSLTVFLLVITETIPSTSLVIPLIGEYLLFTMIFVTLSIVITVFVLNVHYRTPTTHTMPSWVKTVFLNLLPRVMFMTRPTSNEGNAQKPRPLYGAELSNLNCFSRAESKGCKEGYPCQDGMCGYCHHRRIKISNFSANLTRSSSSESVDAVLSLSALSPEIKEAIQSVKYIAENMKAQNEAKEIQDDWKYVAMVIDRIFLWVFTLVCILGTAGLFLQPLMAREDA
T1 sequence (P17787 26-502): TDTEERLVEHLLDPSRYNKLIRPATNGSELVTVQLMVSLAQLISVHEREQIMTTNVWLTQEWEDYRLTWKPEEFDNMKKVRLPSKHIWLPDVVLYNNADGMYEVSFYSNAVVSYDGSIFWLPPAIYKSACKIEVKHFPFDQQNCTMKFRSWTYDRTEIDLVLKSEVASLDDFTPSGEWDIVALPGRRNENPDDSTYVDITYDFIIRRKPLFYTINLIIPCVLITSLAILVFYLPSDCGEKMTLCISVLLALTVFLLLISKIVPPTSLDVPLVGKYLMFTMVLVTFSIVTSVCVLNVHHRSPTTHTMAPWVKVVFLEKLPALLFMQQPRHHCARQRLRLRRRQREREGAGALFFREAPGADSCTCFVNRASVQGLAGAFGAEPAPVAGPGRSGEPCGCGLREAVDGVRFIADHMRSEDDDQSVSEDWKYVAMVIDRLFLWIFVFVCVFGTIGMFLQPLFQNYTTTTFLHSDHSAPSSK
T2 sequence (P32297 32-505): as the sequence (P32297 32-505) above
T2 sequence (P17787 26-502): as the sequence (P17787 26-502) above
T3 sequence (Q15825+P32297 fused with the stated changes): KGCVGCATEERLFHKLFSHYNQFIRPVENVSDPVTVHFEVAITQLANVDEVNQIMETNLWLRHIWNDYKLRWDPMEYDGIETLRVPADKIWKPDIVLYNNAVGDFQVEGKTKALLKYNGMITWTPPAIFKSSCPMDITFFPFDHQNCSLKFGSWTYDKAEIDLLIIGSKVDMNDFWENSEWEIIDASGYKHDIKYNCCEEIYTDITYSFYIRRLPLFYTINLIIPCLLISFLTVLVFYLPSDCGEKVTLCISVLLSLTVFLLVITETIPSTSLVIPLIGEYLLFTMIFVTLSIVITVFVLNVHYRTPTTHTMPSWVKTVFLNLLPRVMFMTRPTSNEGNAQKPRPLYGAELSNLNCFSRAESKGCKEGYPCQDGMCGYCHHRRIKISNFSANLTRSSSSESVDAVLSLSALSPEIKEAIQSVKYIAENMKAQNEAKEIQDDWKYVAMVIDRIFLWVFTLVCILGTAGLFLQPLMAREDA
T3 sequence (P17787 26-502): as the sequence (P17787 26-502) above
T3 sequence (Q05901 22-458 partner): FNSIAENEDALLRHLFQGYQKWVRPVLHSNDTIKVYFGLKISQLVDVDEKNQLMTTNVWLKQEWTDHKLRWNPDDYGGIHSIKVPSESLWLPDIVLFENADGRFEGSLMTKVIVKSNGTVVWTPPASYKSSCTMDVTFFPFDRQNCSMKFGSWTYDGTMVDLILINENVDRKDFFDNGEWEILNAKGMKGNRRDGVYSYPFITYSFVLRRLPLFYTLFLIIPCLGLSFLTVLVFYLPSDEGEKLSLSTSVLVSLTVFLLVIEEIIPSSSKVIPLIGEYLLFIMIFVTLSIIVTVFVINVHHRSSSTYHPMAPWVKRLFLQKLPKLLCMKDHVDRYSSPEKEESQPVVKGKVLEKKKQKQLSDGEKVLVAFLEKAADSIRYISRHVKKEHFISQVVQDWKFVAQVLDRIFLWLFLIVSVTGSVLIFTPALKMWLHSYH
T6 sequence (P43681 27-627): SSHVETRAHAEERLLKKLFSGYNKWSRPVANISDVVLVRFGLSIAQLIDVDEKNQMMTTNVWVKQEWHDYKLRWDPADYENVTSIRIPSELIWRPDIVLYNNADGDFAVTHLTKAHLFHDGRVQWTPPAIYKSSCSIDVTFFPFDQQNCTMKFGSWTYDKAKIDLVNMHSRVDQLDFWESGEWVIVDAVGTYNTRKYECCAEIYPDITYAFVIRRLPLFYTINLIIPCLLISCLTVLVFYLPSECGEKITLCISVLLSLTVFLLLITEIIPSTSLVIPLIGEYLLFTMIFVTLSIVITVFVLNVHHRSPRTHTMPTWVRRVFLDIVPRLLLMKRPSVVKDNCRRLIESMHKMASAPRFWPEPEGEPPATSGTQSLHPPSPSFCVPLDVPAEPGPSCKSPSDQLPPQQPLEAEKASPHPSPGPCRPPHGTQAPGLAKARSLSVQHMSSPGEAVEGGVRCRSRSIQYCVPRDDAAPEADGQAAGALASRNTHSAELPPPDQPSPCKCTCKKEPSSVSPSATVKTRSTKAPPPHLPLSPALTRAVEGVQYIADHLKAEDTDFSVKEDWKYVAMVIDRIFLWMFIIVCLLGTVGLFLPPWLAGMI
T6 sequence (P17787 26-502): as the sequence (P17787 26-502) above
T4 sequence (P43681 27-627): as the sequence (P43681 27-627) above
T4 sequence (P17787 26-502): as the sequence (P17787 26-502) above
T5 sequence (P43681 27-627): as the sequence (P43681 27-627) above
T5 sequence (P17787 26-502): as the sequence (P17787 26-502) above
T5 sequence (P30532 23-468 partner): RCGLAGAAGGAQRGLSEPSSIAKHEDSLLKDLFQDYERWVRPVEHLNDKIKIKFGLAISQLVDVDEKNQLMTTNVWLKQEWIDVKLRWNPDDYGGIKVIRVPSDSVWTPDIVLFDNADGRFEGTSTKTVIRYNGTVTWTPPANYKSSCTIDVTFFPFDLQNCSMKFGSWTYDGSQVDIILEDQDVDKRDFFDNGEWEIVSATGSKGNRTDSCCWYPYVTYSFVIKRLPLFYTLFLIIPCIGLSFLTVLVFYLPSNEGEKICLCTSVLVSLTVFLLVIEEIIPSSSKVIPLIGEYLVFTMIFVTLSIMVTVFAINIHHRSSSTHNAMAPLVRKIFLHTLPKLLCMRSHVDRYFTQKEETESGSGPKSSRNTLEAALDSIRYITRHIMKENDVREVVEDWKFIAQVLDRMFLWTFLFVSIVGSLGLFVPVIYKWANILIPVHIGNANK

SMILES: CC(=O)OCC[N+](C)(C)C [ACh, Acetylcholine chloride]
- EC90 ((α3β2)2α3 nAChR): 3050 µM
- EC90 ((α3β2)2β2 nAChR): 79 µM
- EC90 (α6/α3β2β3 nAChR): 40 µM
- EC90 ((α4β2)2β2 nAChR): 18 µM
- EC90 (α4β2α5 nAChR): 12 µM
- EC90 ((α4β2)2α4 nAChR): 1160 µM
- EC90 [1]: 26 µM
- NH (95% CI) of ACh curve, no peptide (α7 nAChR [2]): 1.14 (1.01 – 1.29)

SMILES: CSCC[C@H](NC(=O)[C@H](CCCCN)NC(=O)[C@H](CCCNC(=N)N)NC(=O)[C@@H](N)Cc1ccc(O)cc1)C(=O)N[C@@H](Cc1c[nH]c2ccccc12)C(=O)N[C@@H](CCSC)C(=O)N1CCC[C@H]1C(=O)N[C@@H](CCC(=O)O)C(=O)N[C@@H](CC(N)=O)C(=O)N1CCC[C@H]1C(=O)N[C@@H](CCCNC(=N)N)C(=O)N[C@@H](CC(C)C)C(=O)NCC(=O)N[C@H](C(=O)N[C@@H](CO)C(=O)N[C@H]1CSSC[C@@H](C(=O)N[C@@H](CO)C(=O)N[C@@H](CO)C(=O)N[C@@H](CCCNC(=N)N)C(=O)NCC(=O)N[C@@H](CCCCN)C(=O)N[C@H](C(=O)N[C@H](C(=O)N[C@@H](CCC(=O)O)C(=O)N[C@@H](CC(C)C)C(=O)NCC(=O)O)C(C)C)C(C)C)NC(=O)[C@H](C)NC(=O)[C@H](C)NC(=O)[C@H](CC(=O)O)NC1=O)[C@@H](C)O [ARA-F19A]
- potency relative to ARA [3]: fourfold less potent
- outward current with peptide alone (in words) ([4]; N = 4, n = 4): eliminate the outward current

SMILES: CSCC[C@H](NC(=O)[C@H](CCCCN)NC(=O)[C@H](CCCNC(=N)N)NC(=O)[C@@H](N)Cc1ccc(O)cc1)C(=O)N[C@@H](Cc1c[nH]c2ccccc12)C(=O)N[C@@H](CCSC)C(=O)N1CCC[C@H]1C(=O)N[C@@H](CCC(=O)O)C(=O)N[C@@H](CC(N)=O)C(=O)N1CCC[C@H]1C(=O)N[C@@H](CCCNC(=N)N)C(=O)N[C@@H](CC(C)C)C(=O)NCC(=O)N[C@H](C(=O)N[C@@H](CO)C(=O)N[C@H]1CSSC[C@@H](C(=O)N[C@@H](CO)C(=O)N[C@@H](CO)C(=O)N[C@@H](CCCNC(=N)N)C(=O)NCC(=O)N[C@@H](CCCCN)C(=O)N[C@H](C(=O)N[C@H](C(=O)N[C@@H](CCC(=O)O)C(=O)N[C@@H](CC(C)C)C(=O)NCC(=O)O)C(C)C)C(C)C)NC(=O)[C@H](Cc2ccccc2)NC(=O)[C@H](C)NC(=O)[C@H](CC(=O)O)NC1=O)[C@@H](C)O [ARA]
- effect of peptide application on oocytes not expressing α7 nAChRs (uninjected oocytes): no effect
- recovery (reactivation) of desensitized α7 nAChRs (α7 nAChR [5]): no recovery of desensitized receptors was observed
- percent inhibition of ACh EC90 response [6]: 26% ± 6%
- outward current evoked by peptide alone [4]: 3–15 nA
- silent agonist test: receptor activation on coapplication with type II PAM [4]: No receptor activation was observed
- NH (95% CI) of ACh curve with 10 µM ARA (α7 nAChR [2]): 0.90 (0.81 – 1.00)
- NH (95% CI) of ACh curve with 100 µM ARA (α7 nAChR [2]): 1.06 (0.95 – 1.18)
- mechanism of antagonism (α7 nAChR [2]): competitive antagonist

SMILES: CC[C@H](C)[C@H](NC(=O)[C@H](CC(=O)O)NC(=O)[C@H](CS)NC(=O)[C@H](CO)NC(=O)[C@@H](NC(=O)CNC(=O)[C@H](CC(C)C)NC(=O)[C@H](CCCNC(=N)N)NC(=O)[C@@H]1CCCN1C(=O)[C@H](CC(N)=O)NC(=O)[C@H](CCC(=O)O)NC(=O)[C@@H]1CCCN1C(=O)[C@H](CCSC)NC(=O)[C@H](Cc1c[nH]c2ccccc12)NC(=O)[C@H](CCSC)NC(=O)[C@H](CCCCN)NC(=O)[C@H](CCCNC(=N)N)NC(=O)[C@@H](N)Cc1ccc(O)cc1)[C@@H](C)O)C(=O)N[C@@H](Cc1ccccc1)C(=O)N[C@H](C(=O)N[C@@H](CC(N)=O)C(=O)N[C@@H](CO)C(=O)N[C@@H](CCCNC(=N)N)C(=O)NCC(=O)N[C@@H](CCCCN)C(=O)N[C@@H](CCCNC(=N)N)C(=O)N[C@@H](C)C(=O)N[C@@H](CO)C(=O)N[C@@H](CCCCN)C(=O)NCC(=O)O)[C@@H](C)O [ARR]
- percent inhibition of ACh EC90 response (α7 nAChR [7]): 94% ± 1%
